Like-named read-outs stand apart in the source and are kept apart here. Each block holds one compound with its values, some of them ahead of it.
Key:
[1] = tested on: Human foreskin fibroblasts (HF) CRL-4001; test: MTT cell viability assay, fibroblasts HF; format: cell-based; details: Fibroblast, 72 hours of incubation, n = 3, read-out: EC50 against HF
Description: (§1) The human clear cell renal cell carcinoma line (CaKi-1) was obtained from American Type Culture Collection (ATCC, Manassas, VA). The human prostate carcinoma cell line PPC-1 was originally obtained from ATCC and kindly provided by Prof. Tambet Teesalu (University of Tartu, Estonia). Human foreskin fibroblasts (HF) CRL-4001 were originally obtained from ATCC and kindly provided by Prof. Helder Santos (University of Helsinki, Finland). Cells were cultured in Dulbecco’s Modified Eagle’s GlutaMAX medium (Gibco (Carlsbad, CA, USA) supplemented with 10,000 U/mL penicillin, 10 mg/mL streptomycin (Gibco), and 10% fetal bovine serum (Gibco). During cell passaging, Tryple Express reagent (Gibco) was used for cell detachment. Cell cultures were grown at 37°C in a humidified atmosphere containing 5% CO2. They were used until the passage of 20.
(§2) The effect of synthesized compounds on cell viability was studied using 3-(4,5-dimethylthiazol-2-yl)-2,5-diphenyltetrazolium bromide (MTT; Sigma-Aldrich Co., St Louis, MO, USA) assay, as described elsewhere. […] The absorbance was measured at 570 and 630 nm using a multi-detection microplate reader. The compound effect on cell viability was calculated using a formula (1): Relativecellviability%=A−A0/ANC−A0 (1) Where: […]

[2] = tested on: human prostate carcinoma cell line PPC-1; test: MTT cell viability assay, PPC-1; format: cell-based; details: 72 hours of incubation, n = 3, read-out: EC50 against PPC-1
Description: as §1, §2

[3] = tested on: HF, PPC-1, and CaKi-1 cells; test: MTT cell viability screen at 100 μM (cell line not given); format: cell-based, human; details: 72 h, cell line not stated
Description: The effect of synthesized compounds on cell viability was studied using 3-(4,5-dimethylthiazol-2-yl)-2,5-diphenyltetrazolium bromide (MTT; Sigma-Aldrich Co., St Louis, MO, USA) assay, as described elsewhere. Briefly, HF, PPC-1, and CaKi-1 cells were seeded in 96-well plates (Corning) in triplicates at a volume of 100 μL at a concentration of 4 × 10^3 cells/well. After 24 h of incubation, the cells were treated with 100 μM of tested compounds. After 72 h, the MTT reagent (at 0.5 mg/mL concentration) has been added to the wells, and cells were incubated for 4 h. Then the medium was aspirated, and the formed purple crystals were dissolved in 100 μL DMSO (Sigma-Aldrich Co.). The absorbance was measured at 570 and 630 nm using a multi-detection microplate reader. The compound effect on cell viability was calculated using a formula (1): Relativecellviability%=A−A0/ANC−A0 (1) Where: […]

[4] = tested on: human clear cell renal cell carcinoma line (CaKi-1); test: MTT cell viability assay, CaKi-1; format: cell-based; details: 72 hours of incubation, n = 3, read-out: EC50 against CaKi-1
Description: as §1, §2

CaKi-1 cells = details: cited from earlier work

EC50 [2]: > 100 µM | melting point: 206 to 207 °C | EC50 [4]: > 100 µM
SMILES: Cc1cc(NS(=O)(=O)c2ccc(NCCC(=O)NN=Cc3cccc4ccccc34)cc2)no1 [Compound 15k, N-(5-methylisoxazol-3-yl)-4-((3-(2-(naphthalen-1-ylmethylene)hydrazineyl)-3-oxopropyl)amino)-benzenesulfonamide]
EC50 [1]: > 100 µM | reduced cell viability up to about [3]: about 40%

SMILES: Cc1ccc(Nc2nccc(N(C)c3ccc4c(C)n(C)nc4c3)n2)cc1S(N)(=O)=O [pazopanib]
EC50 (CaKi-1 cells; after 72 hours of incubation, read-out: EC50 (renal cancer drugs, compared with CaKi-1 data)): 30 µM

SMILES: CCN(CC)CCNC(=O)c1c(C)[nH]c(/C=C2\C(=O)Nc3ccc(F)cc32)c1C [sunitinib]
EC50 (CaKi-1 cells; read-out: EC50 against CaKi-1 cells): 2.2 µM
